Source: patent US20250108064A1, “PHOSPHATE PRODRUGS OF CANNABINOIDS” (priority 2021, published 2025)

Tests used:
physchem = assay type: physicochemical; conditions: aqueous buffer, kinetic from dmso stock; nephelometry, PBS pH 7.0-7.3, 1% DMSO, 25° C., 90 min
Method: General Experimental: Nephelometry experiments were performed using untreated Corning® Costar® 96-well black polystyrene plates with clear flat bottoms. Sample stock solutions and serial dilutions were prepared with DriSolv® DMSO purchased from MilliporeSigma. All 100-fold dilutions and replicate experiments were prepared using Gibco® Dulbecco's phosphate-buffered saline (DPBS, no calcium, no magnesium) with a pH range of 7.0-7.3 as aqueous media. […] Nephelometry data was obtained using a NEPHELOstar® microplate reader and processed with MARS data analysis software from BMG LabTech.
Procedure for Nephelometry Experiments: Tested compounds were dissolved in 100% DMSO to make stock solutions of specified concentrations, ranging from 10 mM minimum up to 50 mM maximum. The sample then underwent serial dilution in a 96-well plate (Corning® Costar®). Well A1 of the plate contained 100% DMSO. […] Using a 12 channel multichannel pipette, 2.5 μL of sample from row A was transferred to each well in row B through row H of the plate. Next, 30 μL of PBS (pH=7.0-7.3) was added to row B through row H, providing each well with 32.5 μL. The plate was then incubated for 30 sec with shaking. Finally, 217.5 μL of PBS buffer was added to row B through row H, and the entire plate was incubated with shaking at 25° C. for 90 min. Note: The final volume of DMSO in actual experiments with PBS buffer was 1% throughout the plate. After 90 min, the 96-well plate was analyzed with a NEPHELOstar® instrument and the data was processed with MARS data analysis software.

[1] = Simulated Gastric Fluid stability assay; assay type: in vitro ADME; conditions: simulated gastric fluid (SGF) with pepsin, pH 1.2; SGF pH about 1.2 with pepsin, 37° C.; read-out: T½ in SGF (converted)
Method: General Experimental: Simulated Gastric Fluid (SGF) is a pH 1.2 HCl solution with purified pepsin (800-2500 units of activity) (Test Solutions, The United States Pharmacopoeia (USP), 2008). SGF was prepared according to a procedure described in Test Solution—USP and other published articles (Bioorganic Chemistry, 49 (2013), 40-48). Sodium chloride 0.20 g and purified pepsin 0.32 g (Sigma), derived from porcine stomach mucosa with an activity of 800 to 2500 units per mg of protein, were dissolved in 0.70 mL hydrochloric acid and sufficient water to make 100 mL. […] The SGF solution prepared was used for in vitro studies to evaluate the prodrug stability.
At specified time intervals, aliquots (100 μL) were withdrawn and added to pre-cooled 100% acetonitrile (200 μL spiked with ISTD) and mixed well by vortex mixing for 2 min. The mixture was centrifuged at 13000 rpm for 15 min at 4° C.

[2] = Plasma stability assay (human plasma); assay type: in vitro ADME; conditions: 37° C., read-out: T½ in human plasma (converted)
Method: General Experimental: Procaine and Procainamide were purchased from Sigma-Aldrich. Human plasma was obtained from BioIVT (Cat. No. […]2N) and 1X Dulbecco's PBS (pH 7.4, Gibco) was obtained from Thermos Fischer. Stock solutions were prepared in 100% DMSO, and suitable dilutions of target analytes were prepared in methanol for method development.
Procedure for Plasma Stability Assay: Test compounds were dissolved in DMSO to make a stock solution of 10 mM and then diluted to 500 μM in buffer (or 70% MeOH). Human plasma was thawed at ambient temperature and is aliquoted ([…]) to a 1.5 mL Eppendorf tube in duplicates (A and B) for each compound. Plasma was incubated at 37° C. for 10 minutes in an incubator shaker at 150 rpm; the reaction was initiated by the addition of the test compound (6.0 μL) and vortex mixing. The total reaction volume was 1000 μL where the final organic solvent concentrations were 0.6% MeOH and 0.03% DMSO. The spiked plasma samples were incubated at 37° C. for 4 hrs. The reactions were terminated at time points 0, 15, 30, 60, 120, 180, and 240 min by taking a 100 μL aliquot from the test incubation mixture and immediately quenching it in ice-cold acetonitrile containing internal standard (150 μL with 2 μM ISTD), followed by a quick vortex mixing. In addition, matrix blank was prepared by adding acetonitrile solutions containing ISTD to plasma samples without any of the analytes or control compounds. Also, an additional tube was made to measure compound degradation in PBS buffer. The samples were centrifuged at 15000 rpm for 25 min at 4° C. The supernatant was transferred to an LC-MS vial for analysis by LC/MS-MS. Each time point was run in duplicates followed by in-between blank washes to avoid the carryover and to equilibrate the column. Half-life (T1/2) was calculated using the data obtained from LC-MS/MS and by plotting ln (% remaining of the parent prodrug) versus time and performing linear regression to determine slope. Slope=−k and T1/2=0.693/k for first-order kinetics.
These positive controls were run in parallel to test the systems for competency.

C=C(C)[C@@H]1CCC(C)=C[C@H]1c1c(O)cc(CCCCC)cc1OC(=O)C1(OP(=O)(O)O)CC1.N.N [7b, 1-((((1′R,2′R)-6-hydroxy-5′-methyl-4-pentyl-2′-(prop-1-en-2-yl)-1′,2′,3′,4′-tetrahydro-[1,1′-biphenyl]-2-yl)oxy)carbonyl)cyclopropyl phosphate di-ammonium salt]
solubility (physchem): > 500 µM | half-life at 2 mM [1]: > 3 h | half-life [2]: 5.3 h
